Experimental data published in US20110086889A1, “TETRAZOLE COMPOUNDS AS OREXIN RECEPTOR ANTAGONISTS” (priority 2009, published 2011).

How the values were obtained:
[1] = rat; cited from earlier work
[2] = rat model; cited from earlier work
[3] = cited from earlier work
[4] = biological target: T1, human orexin-1 receptor (Homo sapiens, UniProt O43613); experiment: FLIPR calcium assay, orexin receptor antagonistic activity, CHO cells expressing the human orexin-1 receptor; format: cell-based; conditions: 3 nM orexin-A as agonist, some values geometric mean of n = 2 or 3, read-out: OX1 IC50
T1 construct: expressed in transfected cells; host or cells: Chinese hamster ovary (CHO) cells, grown under G418 selection
T1 sequence (O43613 1-425): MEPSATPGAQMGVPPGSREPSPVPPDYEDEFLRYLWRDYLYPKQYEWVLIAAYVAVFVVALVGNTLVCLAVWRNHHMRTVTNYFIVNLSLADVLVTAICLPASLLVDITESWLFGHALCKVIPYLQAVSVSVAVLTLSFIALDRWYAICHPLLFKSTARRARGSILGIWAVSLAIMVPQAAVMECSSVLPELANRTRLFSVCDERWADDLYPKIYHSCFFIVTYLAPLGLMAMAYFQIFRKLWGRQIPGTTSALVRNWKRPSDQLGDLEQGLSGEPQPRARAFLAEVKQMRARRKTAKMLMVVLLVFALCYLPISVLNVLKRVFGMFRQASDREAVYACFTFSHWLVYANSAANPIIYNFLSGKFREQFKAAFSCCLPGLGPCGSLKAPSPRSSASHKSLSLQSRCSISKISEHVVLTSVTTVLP
Description: (§1) The orexin receptor antagonistic activity of the compounds of formula (I) is determined in accordance with the following experimental method.
(§2) Chinese hamster ovary (CHO) cells expressing the human orexin-1 receptor and the human orexin-2 receptor, respectively, are grown in culture medium (Ham F-12 with L-Glutamine) containing 300 μg/ml G418, 100 U/ml penicillin, 100 μg/ml streptomycin and 10% heat inactivated fetal calf serum (FCS). The cells are seeded at 20,000 cells/well into 384-well black clear bottom sterile plates (Greiner). The seeded plates are incubated overnight at 37° C. in 5% CO2. Human orexin-A as an agonist is prepared as 1 mM stock solution in MeOH:water (1:1), diluted in HBSS containing 0.1% bovine serum albumin (BSA), NaHCO3: 0.375 g/l and 20 mM HEPES for use in the assay at a final concentration of 3 nM.
(§3) Antagonists are prepared as 10 mM stock solution in DMSO, then diluted in 384-well plates using DMSO followed by a transfer of the dilutions into in HBSS containing 0.1% bovine serum albumin (BSA), NaHCO3: 0.375 g/l and 20 mM HEPES. On the day of the assay, 50 μl of staining buffer (HBSS containing 1% FCS, 20 mM HEPES, NaHCO3: 0.375 g/l, 5 mM probenecid (Sigma) and 3 μM of the fluorescent calcium indicator fluo-4 AM (1 mM stock solution in DMSO, containing 10% pluronic) is added to each well. The 384-well cell-plates are incubated for 50 min at 37° C. in 5% CO2 followed by equilibration at r.t. for 30-120 min before measurement.
(§4) Within the Fluorescent Imaging Plate Reader (FLIPR Tetra, Molecular Devices), antagonists are added to the plate in a volume of 10 μl/well, incubated for 10 min and finally 10 μl/well of agonist is added. Fluorescence is measured for each well at 1 second intervals, and the height of each fluorescence peak is compared to the height of the fluorescence peak induced by 3 nM orexin-A with vehicle in place of antagonist. For each antagonist, the IC50 value (the concentration of compound needed to inhibit 50% of the agonistic response) is determined and may be normalized using the obtained IC50 value of a on-plate reference compound. Optimized conditions were achieved by adjustment of pipetting speed and cell splitting regime. The calculated IC50 values of the compounds may fluctuate depending on the daily cellular assay performance. Fluctuations of this kind are known to those skilled in the art.

[5] = biological target: T2, human orexin-2 receptor (Homo sapiens, UniProt O43614); experiment: FLIPR calcium assay, orexin receptor antagonistic activity, CHO cells expressing the human orexin-2 receptor; format: cell-based; conditions: 3 nM orexin-A as agonist, some values geometric mean of n = 2 or 3, read-out: OX2 IC50
T2 construct: expressed in transfected cells; host or cells: Chinese hamster ovary (CHO) cells, grown under G418 selection
T2 sequence (O43614 1-444): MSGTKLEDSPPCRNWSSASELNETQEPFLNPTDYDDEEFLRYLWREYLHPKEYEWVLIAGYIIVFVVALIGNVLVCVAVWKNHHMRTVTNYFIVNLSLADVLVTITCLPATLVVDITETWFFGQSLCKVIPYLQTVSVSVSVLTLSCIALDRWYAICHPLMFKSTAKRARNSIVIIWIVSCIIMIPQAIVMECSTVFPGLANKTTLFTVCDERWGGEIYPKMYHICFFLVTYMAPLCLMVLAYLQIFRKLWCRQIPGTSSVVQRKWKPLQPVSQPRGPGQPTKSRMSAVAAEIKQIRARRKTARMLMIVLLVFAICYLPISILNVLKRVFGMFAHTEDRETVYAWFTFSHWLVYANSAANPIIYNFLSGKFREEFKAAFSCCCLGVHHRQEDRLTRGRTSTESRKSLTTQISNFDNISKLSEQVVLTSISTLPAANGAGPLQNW
Description: as §1, §2, §3, §4

Row | IC50 [4] [nM] | IC50 [5] [nM] | SMILES | alertness, characterized by active wake and locomotion [1] | time spent in both REM and NREM sleep [1] | memory function [2] | activity in a rat model of post-traumatic stress disorder [3]
1 |  |  | CNC(=O)[C@@H](c1ccccc1)N1CCc2cc(OC)c(OC)cc2[C@@H]1CCc1ccc(C(F)(F)F)cc1 [(2R)-2-{(1S)-6,7-dimethoxy-1-[2-(4-trifluoromethyl-phenyl)-ethyl]-3,4-dihydro-1H-isoquinolin-2-yl}-N-methyl-2-phenyl-acetamide] | decrease alertness | dose-dependently increase | enhance memory function | active
2 | 32 | 5 | COc1ccc(Cn2nccc2NC(=O)CSc2nnnn2-c2cccc(C)c2C)cc1 [Example 1, 2-[1-(2,3-Dimethyl-phenyl)-1H-tetrazol-5-ylsulfanyl]-N-[2-(4-methoxy-benzyl)-2H-pyrazol-3-yl]-acetamide] |  |  |  | 
3 | 42 | 25 | COc1ccc(Cn2nccc2NC(=O)CSc2nnnn2-c2cccc(C)c2C)cc1C [Example 2, 2-[1-(2,3-Dimethyl-phenyl)-1H-tetrazol-5-ylsulfanyl]-N-[2-(4-methoxy-3-methyl-benzyl)-2H-pyrazol-3-yl]-acetamide] |  |  |  | 
4 | 61 | 89 | COc1ccc(Cn2nccc2NC(=O)CSc2nnnn2-c2cccc(C)c2C)cc1OC [Example 10, N-[2-(3,4-Dimethoxy-benzyl)-2H-pyrazol-3-yl]-2-[1-(2,3-dimethyl-phenyl)-1H-tetrazol-5-ylsulfanyl]-acetamide] |  |  |  | 
5 | 48 | 115 | Cc1ccccc1Cn1nccc1NC(=O)CSc1nnnn1-c1cccc(C)c1C [Example 22, 2-[1-(2,3-Dimethyl-phenyl)-1H-tetrazol-5-ylsulfanyl]-N-[2-(2-methyl-benzyl)-2H-pyrazol-3-yl]-acetamide] |  |  |  | 
6 | 11 | 6 | COc1ccc(Cn2nccc2NC(=O)CSc2nnnn2-c2cc(C)ccc2C)cc1 [Example 46, 2-[1-(2,5-Dimethyl-phenyl)-1H-tetrazol-5-ylsulfanyl]-N-[2-(4-methoxy-benzyl)-2H-pyrazol-3-yl]-acetamide] |  |  |  | 
7 | 3440 | 1800 | COc1ccc(-n2nnnc2SCC(=O)Nc2ccnn2Cc2ccc3c(c2)OCO3)c(OC)c1 [Example 62, N-(2-Benzo[1,3]dioxol-5-ylmethyl-2H-pyrazol-3-yl)-2-[1-(2,4-dimethoxy-phenyl)-1H-tetrazol-5-ylsulfanyl]-acetamide] |  |  |  | 
8 | 363 | 165 | Cc1cccc(-n2nnnc2SCC(=O)Nc2ccnn2CC2CC2)c1C [Example 76, N-(2-Cyclopropylmethyl-2H-pyrazol-3-yl)-2-[1-(2,3-dimethyl-phenyl)-1H-tetrazol-5-ylsulfanyl]-acetamide] |  |  |  | 
9 | 295 | 613 | CCC(C)Cn1nccc1NC(=O)CSc1nnnn1-c1cccc(C)c1C (stereo not drawn) [Example 77, 2-[1-(2,3-Dimethyl-phenyl)-1H-tetrazol-5-ylsulfanyl]-N-[2-(2-methyl-butyl)-2H-pyrazol-3-yl]-acetamide] |  |  |  | 
10 | 1810 | 146 | Cc1cccc(-n2nnnc2SCC(=O)Nc2ccnn2CCCc2ccc(OC(F)(F)F)c(F)c2)c1C [Example 85, 2-[1-(2,3-Dimethyl-phenyl)-1H-tetrazol-5-ylsulfanyl]-N-{2-[3-(3-fluoro-4-trifluoromethoxy-phenyl)-propyl]-2H-pyrazol-3-yl}-acetamide] |  |  |  | 
11 | 44 | 47 | Cc1ccc(C)c(-n2nnnc2SCC(=O)Nc2ccnn2CCc2ccccc2)c1 [Example 89, 2-[1-(2,5-Dimethyl-phenyl)-1H-tetrazol-5-ylsulfanyl]-N-(2-phenethyl-2H-pyrazol-3-yl)-acetamide] |  |  |  | 
12 | 25 | 41 | COc1ccc(Cn2nccc2NC(=O)CCc2nnnn2-c2cccc3ccccc23)cc1 [Example 115, N-[2-(4-Methoxy-benzyl)-2H-pyrazol-3-yl]-3-(1-naphthalen-1-yl-1H-tetrazol-5-yl)-propionamide] |  |  |  | 
13 | 796 | 530 | COc1ccc(-n2nccc2NC(=O)CCc2nnnn2-c2c(C)cc(C)cc2C)cc1 [Example 139, N-[2-(4-Methoxy-phenyl)-2H-pyrazol-3-yl]-3-[1-(2,4,6-trimethyl-phenyl)-1H-tetrazol-5-yl]-propionamide] |  |  |  | 
14 | 85 | 19 | Cc1cccc(-n2nnnc2SCC(=O)Nc2ccnn2-c2ccc(Oc3ccccc3)cc2)c1C [Example 141, 2-[1-(2,3-Dimethyl-phenyl)-1H-tetrazol-5-ylsulfanyl]-N-[2-(4-phenoxy-phenyl)-2H-pyrazol-3-yl]-acetamide] |  |  |  | 
15 | 47 | 8300 | COc1ccc(-n2nccc2NC(=O)CSc2nnnn2-c2cccc(C)c2C)cn1 [Example 147, 2-[1-(2,3-Dimethyl-phenyl)-1H-tetrazol-5-ylsulfanyl]-N-[2-(6-methoxy-pyridin-3-yl)-2H-pyrazol-3-yl]-acetamide] |  |  |  | 
16 | 63 | 32 | COc1ccc(-n2nccc2NC(=O)CSc2nnnn2-c2c(Cl)cccc2Cl)cc1 [Example 152, 2-[1-(2,6-Dichloro-phenyl)-1H-tetrazol-5-ylsulfanyl]-N-[2-(4-methoxy-phenyl)-2H-pyrazol-3-yl]-acetamide] |  |  |  | 
17 | 7250 | 654 | Cc1cc(NC(=O)CSc2nnnn2-c2cccc(C)c2C)n(-c2ccccc2)n1 [Example 154, 2-[1-(2,3-Dimethyl-phenyl)-1H-tetrazol-5-ylsulfanyl]-N-(5-methyl-2-phenyl-2H-pyrazol-3-yl)-acetamide] |  |  |  | 
